According to patent US9138408B2, “Use of taurine for treating alopecia” (L'OREAL, priority 2002, dated 2015):
Entries after “also recorded” stand apart in the source; their conditions may differ.

System: normal human dermal fibroblasts (NHDF pool PF2)
Assay: Incorporation of thymidine, proline and leucine in macromolecules neosynthesized by fibroblasts in culture
Assay type: cell-based
Conditions: for Leucine incorporation / Proline incorporation / Thymidine incorporation: NHDF in vitro culture
Experimental: A study was performed with the aim of evaluating, via a screening method, the effects of the compounds on the growth of fibroblasts and the synthesis of the major constituents of the extracellular matrix. The technique made it possible to study and evaluate the advantage of taurine on this cell metabolism (T. Shigematsu et al. Biochimica et Biophysica Acta 1200 (1994) 79-83).
A pool of normal human dermal fibroblasts (NHDF pool PF2, used at the eighth passage) was cultured under standard conditions in a medium: DMEM, 2 mM L-glutamine, 50 IU/ml/50 […] penicillin/streptomycin, 0.5% fetal calf serum.
Taurine was tested at concentrations of 10 mM and 1 mM in a sterile culture medium, against an untreated control blank.
The figures in bold are those for which there is a significant variation (stat. sign. meaning statistical significance: p<0.005). The results are expressed as a percentage of the control.

[1] = at the two concentrations (1 mM, 10 mM), fibroblasts

NCCS(=O)(=O)O [taurine, Taurine]
Leucine incorporation (1 mM taurine): 100 % control
Proline incorporation (1 mM taurine): 88 % control
Thymidine incorporation (1 mM taurine): 89 % control
Leucine incorporation (10 mM taurine): 105 % control
Proline incorporation (10 mM taurine): 87 % control
Thymidine incorporation (10 mM taurine): 90 % control
incorporation of leucine (representative of noncollagen protein synthesis), in words [1]: did not significantly modify; also recorded: without impairing that of leucine
incorporation of proline by the fibroblasts, in words [1]: did significantly inhibit; also recorded: reduces the incorporation of proline
incorporation of thymidine (representative of cell proliferation), in words [1]: did not significantly modify
